Reference: patent US4616020A, “Medicaments, vicinal dihydroxyalkylxanthines contained therein, processes for the preparation of these xanthine compounds and intermediate products suitable for these” (Hoechst Aktiengesellschaft, priority 1981, dated 1986)
Like-named read-outs stand apart in the source and are kept apart here.

Assays:
[1] = system: acetylcholine-induced bronchospasm; assay: Bronchospasmolytic activity (Konzett-Rossler): inhibition of acetylcholine-induced bronchospasm in guinea-pigs; format: in vivo; conditions: Cavia porcellus, guinea-pig, urethane anaesthesia, read-out: Bronchospasmolytic effect (ED50) compared to acetylcholine
Protocol: (§1) The test substances were administered in aqueous solution either intravenously (i.v.) or intraduodenally (i.d.). The ED50 values, which represent that dose in mg/kg at which the experimentally produced spasm is decreased by one half compared to that in untreated animals, were determined graphically from the dose-activity curves.

[2] = system: histamine-induced bronchospasm; assay: Bronchospasmolytic activity (Konzett-Rossler): inhibition of histamine-induced bronchospasm in guinea-pigs; format: in vivo; conditions: Cavia porcellus, guinea-pig, urethane anaesthesia, read-out: Bronchospasmolytic effect (ED50) compared to histamine
Protocol: as §1

[3] = system: serotonine-induced bronchospasm; assay: Bronchospasmolytic activity (Konzett-Rossler): inhibition of serotonine-induced bronchospasm in guinea-pigs; format: in vivo; conditions: Cavia porcellus, guinea-pig, urethane anaesthesia, read-out: Bronchospasmolytic effect (ED50) compared to serotonine
Protocol: as §1

Ratio of LD50 to ED50 = format: in vivo, mouse (LD50); guinea-pigs (ED50)
Protocol: as §1
(§2) Determination of the LD50 values was by the standard method of the mortality occurring within 7 days among NMRI mice after a single intravenous (i.v.), intraperitoneal (i.p.) or oral (p.o.) administration.

NMRI mice = conditions: mouse, i.v.; according to German Offenlegungsschrift 2,716,402; 10080 min; cited from earlier work
central nervous system [4] = conditions: according to German Offenlegungsschrift No. 2,716,402; markedly less than theophylline; cited from earlier work
[5] = background statement; cited from earlier work
[6] = background statement; cited from earlier work; remark: listed apart in the source
[7] = cited from earlier work; for side-effects / therapeutic range: background statement
[8] = Acute toxicity, mortality within 7 days among NMRI mice after single administration; conditions: in vivo, mouse
Excerpt: as §2
*determined by the method of Litchfield and Wilcoxon (J. Pharmacol. exp.

[9] = system: bronchospasm induced with bradykinin; assay: Inhibitory effect on bronchospasm induced in guinea-pigs with bradykinin; format: in vivo; conditions: for ED50: Cavia porcellus, read-out: ED50, bronchospasm induced with bradykinin
Excerpt: Since it is regarded as proven that, apart from the biogenic amines, acetylcholine, histamine and serotonine, listed in Table 4, bradykinin also plays an important part as a mediator substance in the provocation of asthma attacks, the inhibitory effect on the bronchospasm induced in guinea-pigs with bradykinin was investigated.

[10] = system: bronchospastic reactions induced with aerosols of acetylcholine, histamine and ascaris extract; assay: Pulmonary function test on the anaesthetized dog: inhibition of bronchospastic reactions induced with aerosols of acetylcholine, histamine and ascaris extract; format: in vivo
central nervous system [11] = system: central nervous system; design: species or system mice; conditions: mouse, in vivo, po
Protocol: In contrast, the compounds of the formula I according to the invention have no component stimulating the central nervous system, but, on the contrary, exert a slight depressant effect on the central nervous system which is assessed to be particularly advantageous from the therapeutic point of view. Thus, the spontaneous motility of mice, for example, is decreased by 53% for a period of 11 hours after oral administration of 50 mg/kg of the compound from Example 1.

[12] = LD50 i.v. mouse from German Offenlegungsschrift 2,716,402, ED50 i.v. guinea-pig
[13] = LD50 i.v. mouse, ED50 i.v. guinea-pig
[14] = LD50 i.p. mouse, ED50 i.v. guinea-pig

| Structure (SMILES) | ED50 ([1]; iv) [mg/kg] | ED50 ([2]; iv) [mg/kg] | ED50 ([3]; iv) [mg/kg] | LD50 at 168 h ([8]; iv) [mg/kg] | ratio of LD50 to ED50 (head is drawing 107) (Ratio of LD50 to ED50; [13]) | also measured |
| --- | --- | --- | --- | --- | --- | --- |
| CCCn1c(=O)c2c(ncn2CC(O)CO)n(CCC)c1=O (centres unmarked) [7-(2,3-dihydroxypropyl)-1,3-dipropylxanthine] | > 10 | 6.5 | 10 |  |  | ratio of LD50 to ED50 (head is drawing 107) (Ratio of LD50 to ED50; [12]): < 32; Toxicity LD50 (NMRI mice): 287 mg/kg; stimulation of the central nervous system (central nervous system [4]): stimulation of the central nervous system; water solubility [5]: readily soluble in water; bronchospasmolytic activity compared to theophylline [6]: almost to reach the bronchospasmolytic activity of theophylline; acute toxicity compared to theophylline ([7]; German Offenlegungsschrift No. 2,716,402): lower acute toxicity; side-effects [7]: fewer disadvantageous side-effects |
| Cn1c(=O)c2c(ncn2CC(O)CO)n(C)c1=O (centres unmarked) [Diphylline, 7-(2,3-dihydroxypropyl)-1,3-dimethylxanthine] | > 30 | > 30 | > 30 |  |  | ratio of LD50 to ED50 (head is drawing 107) (Ratio of LD50 to ED50; [12]): < 30; Toxicity LD50 (NMRI mice): 886 mg/kg; stimulation of the central nervous system (central nervous system [4]): stimulation of the central nervous system; water solubility [5]: good water solubility; bronchospasmolytic activity compared to theophylline [6]: drastic decrease in the bronchospasmolytic activity; side-effects [7]: much less pronounced |
| CCCn1c(=O)c2c(ncn2CCCCC(O)CO)n(CC)c1=O (centres unmarked) [Example 1, 3-Ethyl-7-(5,6-dihydroxyhexyl)-1-propylxanthine] | 2 | 0.2 | 0.3 | 254 | 305 | ED50 ([1]; i.d. (intraduodenal)): 6.3 mg/kg; ED50 ([2]; i.d. (intraduodenal)): 25 mg/kg; ED50 ([3]; i.d. (intraduodenal)): 15 mg/kg; LD50 at 168 h ([8]; po): 1450 mg/kg; ratio of LD50 to ED50 (head is drawing 107) (Ratio of LD50 to ED50; LD50 p.o. mouse, ED50 i.d. guinea-pig): 94; ED50 ([9]; iv, guinea-pigs): 1 to 3 mg/kg; ED50 ([9]; i.d., guinea-pigs): 4 to 6.3 mg/kg; times more effective than theophylline-ethylenediamine, bradykinin bronchospasm ([9]; i.d.): about 6 times; times more effective than theophylline-ethylenediamine, bradykinin bronchospasm ([9]; i.v.): about 3 times; inhibitory effect on bronchospastic reactions ([10]; 12 mg/kg i.v.): significant inhibitory effect; decrease in spontaneous motility (central nervous system [11]; 50 mg/kg): 53% |
| CCn1c(=O)c2c(ncn2CCCCC(O)CO)n(CC)c1=O (centres unmarked) [Example 2, 1,3-Diethyl-7-(5,6-dihydroxyhexyl)xanthine] | 2 | 2 | 2 | 325 | 163 |  |
| CCCCn1c(=O)n(CCCC(O)CO)c(=O)c2c1ncn2C (centres unmarked) [Example 7, 3-Butyl-1-(4,5-dihydroxypentyl)-7-methylxanthine] | 3 | 6.5 |  | > 200 | > 42 |  |
| CCn1c(=O)c2c(ncn2CC)n(CCCCC(O)CO)c1=O (centres unmarked) [Example 8, 1,7-Diethyl-3-(5,6-dihydroxyhexyl)xanthine] | 6.5 | 6.5 | 2 | > 300 | > 60 |  |
| CCCn1c(=O)n(CCCCC(O)CO)c(=O)c2c1ncn2C (centres unmarked) [Example 10] | 3 | 3 | 3 | 250 | 83 |  |
| CCCn1c(=O)c2c(ncn2CCC(O)CO)n(CCC)c1=O (centres unmarked) [Example 12] | 6.5 | 10 | 10 |  |  | LD50 at 168 h ([8]; ip): > 600 mg/kg; ratio of LD50 to ED50 (head is drawing 107) (Ratio of LD50 to ED50; [14]): > 68 |
| CCCn1c(=O)c2c(ncn2CCCC(O)CO)n(CCC)c1=O (centres unmarked) [Example 13] | 6.5 | 6.5 |  |  |  | LD50 at 168 h ([8]; ip): 900 mg/kg; ratio of LD50 to ED50 (head is drawing 107) (Ratio of LD50 to ED50; [14]): 138 |
| CCn1c(=O)c2c(ncn2CCCCC(O)CO)n(C)c1=O (centres unmarked) [Example 17] | 2 | 6.5 | 6.5 | > 300 | > 60 |  |
| CCCn1c(=O)c2c(ncn2CCCCC(O)CO)n(C)c1=O (centres unmarked) [Example 18] | 6.5 | 6.5 | 6.5 | 300 | 46 |  |
| CCCCn1c(=O)c2c(ncn2CCCCC(O)CO)n(C)c1=O (centres unmarked) [Example 19] | 2 | 2 | 3 | 147 | 63 |  |
| CCCCCn1c(=O)c2c(ncn2CCCCC(O)CO)n(C)c1=O (centres unmarked) [Example 21] | 3 | 3 | 3 | 155 | 52 |  |
| CC(C)CCn1c(=O)c2c(ncn2CCCCC(O)CO)n(C)c1=O (centres unmarked) [Example 22] | 1 | 3 | 6.5 | 167 | 48 |  |
| CCn1c(=O)n(C)c(=O)c2c1ncn2CCCCC(O)CO (centres unmarked) [Example 24] | 6.5 | 2 | 10 | 300 | 49 |  |
| CCn1c(=O)n(C(C)C)c(=O)c2c1ncn2CCCCC(O)CO (centres unmarked) [Example 25] | 2 | 6.5 | 2 | > 400 | > 114 |  |
| CCCCn1c(=O)c2c(ncn2CCCCC(O)CO)n(CC)c1=O (centres unmarked) [Example 26] | 2 | 1.6 | 0.6 | 205 | 146 |  |
| CCCCCn1c(=O)c2c(ncn2CCCCC(O)CO)n(CC)c1=O (centres unmarked) [Example 28] | 2 | 3 | 3 | 200 | 75 |  |
| CCCn1c(=O)n(C)c(=O)c2c1ncn2CCCCC(O)CO (centres unmarked) [Example 30] | 6.5 | 2 |  | 250 | 59 |  |
| CCCn1c(=O)c2c(ncn2CCCC(O)C(C)O)n(CC)c1=O (centres unmarked) [Example 33] | 6 | 3 | 2 | > 200 | > 55 |  |
| CCCn1c(=O)c2c(ncn2CCCCCC(O)CO)n(CC)c1=O (centres unmarked) [Example 51] | 2 | 2 |  | 300 | 150 |  |
| Cn1c(=O)c2[nH]cnc2n(C)c1=O.NCCN [Theophylline-ethylenediamine, theophylline-ethylenediamine, reference compound] | 8.3 | 5.6 | 7.3 | 195 |  | LD50 at 168 h ([8]; po): 550 mg/kg; ED50 ([9]; iv): 3 to 10 mg/kg; ED50 [9]: 25 to 40 mg/kg; increase in spontaneous motility (central nervous system [11]; 30 mg/kg): 186%; therapeutic range [7]: not associated with a significant increase in the therapeutic range |
| NCCN [ethylenediamine] |  |  |  |  |  | side-effects [7]: deleterious effect on the cardiovascular system |
| Cn1c(=O)c2[nH]cnc2n(C)c1=O [theophylline, 1,3-dimethylxanthine] |  |  |  |  |  | effect on bronchospastic reactions ([10]; doses up to 20 mg/kg i.v.): no effect; water solubility [5]: lack of water solubility; therapeutic range [7]: very narrow therapeutic range |
